The text below walks through data of PMC5218480 (PLoS ONE, 2017).

This experiment concerns MV-4-11 cells. The experiment is described as follows: Gene expression microarray analysis (Affymetrix PrimeView) and GSEA. It counts as cell-based, human. More on the design: RFU PODN (11730768_x_at) / Fold change /veh PODN (11730768_x_at) / RFU LINC00158 (11744669_a_at) / Fold change /veh LINC00158 (11744669_a_at) / RFU DUSP10 (11751237_a_at) / Fold change /veh DUSP10 (11751237_a_at) / RFU ID3 (11757404_x_at) / Fold change /veh ID3 (11757404_x_at) / RFU PLEKHG5 (11737974_s_at) / Fold change /veh PLEKHG5 (11737974_s_at) / RFU LRRC4B (11730491_at) / Fold change /veh LRRC4B (11730491_at) / RFU GIMAP4 (11747438_a_at) / Fold change /veh GIMAP4 (11747438_a_at) / RFU KRT8 (11758183_x_at) / Fold change /veh KRT8 (11758183_x_at) / RFU CNN1 (11734310_a_at) / Fold change /veh CNN1 (11734310_a_at) / RFU VPS37D (11726825_at) / Fold change /veh VPS37D (11726825_at) / RFU C10orf10 (11716522_x_at) / Fold change /veh C10orf10 (11716522_x_at) / RFU KIR2DL2 /// KIR2DL4 /// KIR2DL5A /// KIR2DL5B /// KIR2DS1 /// KIR2DS2 /// KIR2DS3 /// KIR2DS4 /// KIR3DL3 /// KIR3DL3 /// KIR3DS1 (11738374_at) / Fold change /veh KIR2DL2 /// KIR2DL4 /// KIR2DL5A /// KIR2DL5B /// KIR2DS1 /// KIR2DS2 /// KIR2DS3 /// KIR2DS4 /// KIR3DL3 /// KIR3DL3 /// KIR3DS1 (11738374_at) / RFU C1QL1 (11718748_at) / Fold change /veh C1QL1 (11718748_at) / RFU TMPRSS4 (11747572_a_at) / Fold change /veh TMPRSS4 (11747572_a_at) / RFU HAMP (11756126_x_at) / Fold change /veh HAMP (11756126_x_at) / RFU RNFT2 (11725882_a_at) / Fold change /veh RNFT2 (11725882_a_at) / RFU NR4A2 (11747474_a_at) / Fold change /veh NR4A2 (11747474_a_at) / RFU ABCC12 (11746883_a_at) / Fold change /veh ABCC12 (11746883_a_at) / RFU TMEM136 (11760407_x_at) / Fold change /veh TMEM136 (11760407_x_at) / RFU CLDN22 /// WWC2 (11732394_at) / Fold change /veh CLDN22 /// WWC2 (11732394_at) / RFU HLA-DPB1 (11760878_x_at) / Fold change /veh HLA-DPB1 (11760878_x_at) / RFU SPINT1 (11716480_a_at) / Fold change /veh SPINT1 (11716480_a_at) / RFU GAP43 (11754022_s_at) / Fold change /veh GAP43 (11754022_s_at) / RFU A4GNT (11735810_at) / Fold change /veh A4GNT (11735810_at) / RFU PRB3 (11715151_x_at) / Fold change /veh PRB3 (11715151_x_at) / RFU TUBB4B (11761932_at) / Fold change /veh TUBB4B (11761932_at) / RFU CAPN14 (11732068_a_at) / Fold change /veh CAPN14 (11732068_a_at) / RFU TMCC2 (11721928_a_at) / Fold change /veh TMCC2 (11721928_a_at) / RFU IRGQ (11745062_a_at) / Fold change /veh IRGQ (11745062_a_at) / RFU FAM174B (11720279_a_at) / Fold change /veh FAM174B (11720279_a_at) / RFU TMPRSS4 (11748680_a_at) / Fold change /veh TMPRSS4 (11748680_a_at) / RFU FAM212B (11763350_a_at) / Fold change /veh FAM212B (11763350_a_at) / RFU PLEKHG5 (11743358_a_at) / Fold change /veh PLEKHG5 (11743358_a_at) / RFU ZSCAN30 (11745921_a_at) / Fold change /veh ZSCAN30 (11745921_a_at) / RFU CMKLR1 (11741424_a_at) / Fold change /veh CMKLR1 (11741424_a_at) / RFU LOC101060620 /// MAPK8IP1 (11723275_at) / Fold change /veh LOC101060620 /// MAPK8IP1 (11723275_at) / RFU SPTSSB (11747773_x_at) / Fold change /veh SPTSSB (11747773_x_at) / RFU PRSS12 (11739890_at) / Fold change /veh PRSS12 (11739890_at) / RFU BIN1 (11741810_x_at) / Fold change /veh BIN1 (11741810_x_at) / RFU WNT11 (11732464_a_at) / Fold change /veh WNT11 (11732464_a_at) / RFU C10orf10 (11716521_a_at) / Fold change /veh C10orf10 (11716521_a_at) / RFU C5orf56 (11738089_at) / Fold change /veh C5orf56 (11738089_at) / RFU CYB561 (11721691_x_at) / Fold change /veh CYB561 (11721691_x_at) / RFU ANKRD19P (11752326_a_at) / Fold change /veh ANKRD19P (11752326_a_at) / RFU OR2T12 /// OR2T33 /// OR2T8 (11738714_s_at) / Fold change /veh OR2T12 /// OR2T33 /// OR2T8 (11738714_s_at) / RFU VCAN (11748164_a_at) / Fold change /veh VCAN (11748164_a_at) / RFU JSRP1 (11732532_at) / Fold change /veh JSRP1 (11732532_at) / RFU KRTAP10-11 (11738290_x_at) / Fold change /veh KRTAP10-11 (11738290_x_at) / RFU MYO3A (11730013_a_at) / Fold change /veh MYO3A (11730013_a_at) / RFU EBF3 (11725865_a_at) / Fold change /veh EBF3 (11725865_a_at) / RFU CAMK2N1 (11719241_x_at) / Fold change /veh CAMK2N1 (11719241_x_at) / RFU C5orf56 (11738088_a_at) / Fold change /veh C5orf56 (11738088_a_at) / RFU OLFML3 (11715873_a_at) / Fold change /veh OLFML3 (11715873_a_at) / RFU LOC100653217 /// NTM (11731650_a_at) / Fold change /veh LOC100653217 /// NTM (11731650_a_at) / RFU MAPK11 (11762145_a_at) / Fold change /veh MAPK11 (11762145_a_at) / RFU FIZ1 (11724087_x_at) / Fold change /veh FIZ1 (11724087_x_at) / RFU OASL (11726364_x_at) / Fold change /veh OASL (11726364_x_at) / RFU SOX15 (11748057_x_at) / Fold change /veh SOX15 (11748057_x_at) / RFU CD79A (11719716_a_at) / Fold change /veh CD79A (11719716_a_at) / RFU HIST1H1D (11736915_at) / Fold change /veh HIST1H1D (11736915_at) / RFU CASKIN2 (11723855_a_at) / Fold change /veh CASKIN2 (11723855_a_at) / RFU LOC730098 (11760151_x_at) / Fold change /veh LOC730098 (11760151_x_at) / RFU OR4N2 (11742367_at) / Fold change /veh OR4N2 (11742367_at) / RFU PRRT2 (11749266_a_at) / Fold change /veh PRRT2 (11749266_a_at) / RFU SNX32 (11753110_a_at) / Fold change /veh SNX32 (11753110_a_at) / RFU CDHR5 (11726645_a_at) / Fold change /veh CDHR5 (11726645_a_at) / RFU RCAN1 (11760418_a_at) / Fold change /veh RCAN1 (11760418_a_at) / RFU FAM167A (11723789_a_at) / Fold change /veh FAM167A (11723789_a_at) / RFU FAM26E (11764081_at) / Fold change /veh FAM26E (11764081_at) / RFU ISYNA1 (11749810_s_at) / Fold change /veh ISYNA1 (11749810_s_at) / RFU ACY1 (11761880_at) / Fold change /veh ACY1 (11761880_at) / RFU 11764098_at / Fold change /veh 11764098_at / RFU SAMD14 (11745864_x_at) / Fold change /veh SAMD14 (11745864_x_at) / RFU NPB (11741838_a_at) / Fold change /veh NPB (11741838_a_at) / RFU TMPRSS6 (11731388_a_at) / Fold change /veh TMPRSS6 (11731388_a_at) / RFU KRTAP10-2 (11738614_at) / Fold change /veh KRTAP10-2 (11738614_at) / RFU ARHGAP8 /// PRR5-ARHGAP8 (11727945_x_at) / Fold change /veh ARHGAP8 /// PRR5-ARHGAP8 (11727945_x_at) / RFU KRTAP5-7 /// NADSYN1 (11734609_at) / Fold change /veh KRTAP5-7 /// NADSYN1 (11734609_at) / RFU RASL12 (11751679_a_at) / Fold change /veh RASL12 (11751679_a_at) / RFU CDKN2B (11736163_a_at) / Fold change /veh CDKN2B (11736163_a_at) / RFU PRF1 (11729649_at) / Fold change /veh PRF1 (11729649_at) / RFU, ZNF638 /// ZNF638-IT1 / Fold change vs veh, ZNF638 /// ZNF638-IT1 / RFU, PANK3 / Fold change vs veh, PANK3 / RFU, SH3YL1 / Fold change vs veh, SH3YL1 / RFU, ZEB2 / Fold change vs veh, ZEB2 / RFU, NRIP1 / Fold change vs veh, NRIP1 / RFU, PTTG1IP / Fold change vs veh, PTTG1IP / RFU, CAPN2 / Fold change vs veh, CAPN2 / RFU, MED14 / Fold change vs veh, MED14 / RFU, SNORA58 / Fold change vs veh, SNORA58 / RFU, C1orf63 / Fold change vs veh, C1orf63 / RFU, LRRFIP1 / Fold change vs veh, LRRFIP1 / RFU, NDUFAF7 / Fold change vs veh, NDUFAF7 / RFU, SLC12A2 / Fold change vs veh, SLC12A2 / RFU, IBTK / Fold change vs veh, IBTK / RFU, ESF1 / Fold change vs veh, ESF1 / Fold change vs veh, TMEM50B / RFU, TAOK1 / Fold change vs veh, TAOK1 / RFU, ACBD3 / Fold change vs veh, ACBD3 / RFU, TMA16 / Fold change vs veh, TMA16 / RFU, RWDD3 / Fold change vs veh, RWDD3 / RFU, BCAT1 / Fold change vs veh, BCAT1 / RFU, EDEM3 / Fold change vs veh, EDEM3 / RFU, TMEM33 / Fold change vs veh, TMEM33 / RFU, WDR75 / Fold change vs veh, WDR75 / RFU, AHCTF1 / Fold change vs veh, AHCTF1 / RFU, TFRC / Fold change vs veh, TFRC / RFU, ZDHHC17 / Fold change vs veh, ZDHHC17 / RFU, NOM1 / Fold change vs veh, NOM1 / RFU, ARL8B / Fold change vs veh, ARL8B / RFU, ZBTB11 / Fold change vs veh, ZBTB11 / RFU, TAMM41 / Fold change vs veh, TAMM41 / RFU, KIAA1704 /// LOC100996395 / Fold change vs veh, KIAA1704 /// LOC100996395 / RFU, ING1 / Fold change vs veh, ING1 / RFU, TRMT61B / Fold change vs veh, TRMT61B / RFU, FUBP3 / Fold change vs veh, FUBP3 / RFU, TP53 / Fold change vs veh, TP53 / RFU, TNKS2 / Fold change vs veh, TNKS2 / RFU, ZFP14 / Fold change vs veh, ZFP14 / RFU, ACTR2 / Fold change vs veh, ACTR2 / RFU, PPP3R1 / Fold change vs veh, PPP3R1 / RFU, PIK3R1 / Fold change vs veh, PIK3R1 / RFU, HNRNPA1 / Fold change vs veh, HNRNPA1 / RFU, RNF170 / Fold change vs veh, RNF170 / RFU, ZNF28 / Fold change vs veh, ZNF28 / RFU, RNGTT / Fold change vs veh, RNGTT / RFU, OGT / Fold change vs veh, OGT / RFU, BRD1 / Fold change vs veh, BRD1 / RFU, MARS / Fold change vs veh, MARS / RFU, ZNF655 / Fold change vs veh, ZNF655 / RFU, FAHD1 / Fold change vs veh, FAHD1 / RFU, BDP1 / Fold change vs veh, BDP1 / RFU, LRRCC1 / Fold change vs veh, LRRCC1 / RFU, ARID1A / Fold change vs veh, ARID1A / RFU, ZNF146 / Fold change vs veh, ZNF146 / RFU, ZNF330 / Fold change vs veh, ZNF330 / RFU, GPN3 / Fold change vs veh, GPN3 / RFU, C9orf123 / Fold change vs veh, C9orf123 / RFU, N4BP2L2 / Fold change vs veh, N4BP2L2 / RFU, ARFIP1 / Fold change vs veh, ARFIP1 / RFU, FAM179B / Fold change vs veh, FAM179B / RFU, BCL10 / Fold change vs veh, BCL10 / RFU, UHRF1BP1L / Fold change vs veh, UHRF1BP1L / RFU, BET1 / Fold change vs veh, BET1 / RFU, CNOT2 / Fold change vs veh, CNOT2 / RFU, ZNF268 / Fold change vs veh, ZNF268 / Fold change vs veh, ZNF507 / RFU, DGCR2 / Fold change vs veh, DGCR2 / RFU, WDSUB1 / Fold change vs veh, WDSUB1 / Fold change vs veh, HSP90B1 /// MIR3652 / RFU, ADSS / Fold change vs veh, ADSS / RFU, GK / Fold change vs veh, GK / RFU, ZNF148 / Fold change vs veh, ZNF148 / RFU, TAF9 / Fold change vs veh, TAF9 / RFU, SLC1A5 / Fold change vs veh, SLC1A5 / RFU, SLMO2 / Fold change vs veh, SLMO2 / RFU, ABCC4 / Fold change vs veh, ABCC4 / RFU, LOC101060439 /// RAP1B / Fold change vs veh, LOC101060439 /// RAP1B / RFU, RFX7 / Fold change vs veh, RFX7 / RFU, GTPBP10 / Fold change vs veh, GTPBP10 / RFU, CNEP1R1 / Fold change vs veh, CNEP1R1 / RFU, BIVM-ERCC5 /// ERCC5 / Fold change vs veh, BIVM-ERCC5 /// ERCC5 / RFU, ILF3 / Fold change vs veh, ILF3 / RFU 11762660_at / Fold change /veh 11762660_at / RFU VCAN (11757783_s_at) / Fold change /veh VCAN (11757783_s_at) / RFU DDX43 (11728927_at) / Fold change /veh DDX43 (11728927_at) / RFU KRT8 (11758188_x_at) / Fold change /veh KRT8 (11758188_x_at) / RFU NKD1 (11759106_at) / Fold change /veh NKD1 (11759106_at) / RFU SRD5A1 (11742802_a_at) / Fold change /veh SRD5A1 (11742802_a_at) / RFU TPSAB1 /// TPSB2 (11721975_s_at) / Fold change /veh TPSAB1 /// TPSB2 (11721975_s_at) / RFU GSTM3 (11746129_a_at) / Fold change /veh GSTM3 (11746129_a_at) / RFU IL23R (11737362_x_at) / Fold change /veh IL23R (11737362_x_at) / RFU TMEM51 (11727254_a_at) / Fold change /veh TMEM51 (11727254_a_at) / RFU PIWIL2 (11732686_x_at) / Fold change /veh PIWIL2 (11732686_x_at) / RFU ORM1 (11744905_x_at) / Fold change /veh ORM1 (11744905_x_at) / RFU CCDC152 (11743942_at) / Fold change /veh CCDC152 (11743942_at) / RFU ECM1 (11717891_a_at) / Fold change /veh ECM1 (11717891_a_at) / RFU IL23R (11748794_a_at) / Fold change /veh IL23R (11748794_a_at) / RFU TNFAIP8L3 (11732012_x_at) / Fold change /veh TNFAIP8L3 (11732012_x_at) / RFU MBOAT4 (11741988_at) / Fold change /veh MBOAT4 (11741988_at) / RFU 11764193_at / Fold change /veh 11764193_at / RFU TMEM53 (11763286_at) / Fold change /veh TMEM53 (11763286_at) / RFU MAGEB2 (11727129_at) / Fold change /veh MAGEB2 (11727129_at) / RFU TMEM200A (11744735_a_at) / Fold change /veh TMEM200A (11744735_a_at) / RFU CCDC152 (11751479_a_at) / Fold change /veh CCDC152 (11751479_a_at) / RFU FAM211A (11726209_a_at) / Fold change /veh FAM211A (11726209_a_at) / RFU RGS16 (11746705_a_at) / Fold change /veh RGS16 (11746705_a_at) / RFU VCAN (11755009_s_at) / Fold change /veh VCAN (11755009_s_at) / RFU RHOB (11743442_s_at) / Fold change /veh RHOB (11743442_s_at) / RFU RGS16 (11720943_a_at) / Fold change /veh RGS16 (11720943_a_at) / RFU RGS16 (11720944_at) / Fold change /veh RGS16 (11720944_at) / RFU, VPS4B / Fold change vs veh, VPS4B / RFU, CREB1 / Fold change vs veh, CREB1 / RFU, DNAJC13 / Fold change vs veh, DNAJC13 / RFU, GNAQ / Fold change vs veh, GNAQ / RFU, CDK5R1 / Fold change vs veh, CDK5R1 / RFU, ZRANB3 / Fold change vs veh, ZRANB3 / RFU, CUL4A / Fold change vs veh, CUL4A / RFU, CCNY / Fold change vs veh, CCNY / RFU, UFL1 / Fold change vs veh, UFL1 / RFU, COG3 / Fold change vs veh, COG3 / RFU, DIAPH2 / Fold change vs veh, DIAPH2 / RFU, SKA2 / Fold change vs veh, SKA2 / RFU, AFF3 / Fold change vs veh, AFF3 / RFU, LMF1 / Fold change vs veh, LMF1 / RFU, IPO11 / Fold change vs veh, IPO11 / RFU, DFFB / Fold change vs veh, DFFB / RFU, FOXP1 / Fold change vs veh, FOXP1 / RFU, CARD8 / Fold change vs veh, CARD8 / RFU, STRN3 / Fold change vs veh, STRN3 / RFU, ADK / Fold change vs veh, ADK / RFU, RASSF2 / Fold change vs veh, RASSF2 / RFU, WIPF1 / Fold change vs veh, WIPF1 / RFU, LARP1B / Fold change vs veh, LARP1B / RFU, RASA1 / Fold change vs veh, RASA1 / RFU, RB1 / Fold change vs veh, RB1 / RFU, PPFIA1 / Fold change vs veh, PPFIA1 / RFU, MAT2A / Fold change vs veh, MAT2A / RFU, CCT5 / Fold change vs veh, CCT5 / RFU, WDR92 / Fold change vs veh, WDR92 / RFU, CUX1 / Fold change vs veh, CUX1 / RFU, TTC7A / Fold change vs veh, TTC7A / RFU, TMEM135 / Fold change vs veh, TMEM135 / RFU, DEPTOR / Fold change vs veh, DEPTOR / RFU, CPM / Fold change vs veh, CPM / RFU, DNAJB6 / Fold change vs veh, DNAJB6 / RFU, CACNA2D3 / Fold change vs veh, CACNA2D3 / RFU, DTX4 / Fold change vs veh, DTX4 / RFU, TFCP2 / Fold change vs veh, TFCP2 / RFU, GMCL1 /// GMCL1P1 / Fold change vs veh, GMCL1 /// GMCL1P1 / RFU, AEBP2 / Fold change vs veh, AEBP2 / RFU, SNHG1 /// SNORD22 /// SNORD25 /// SNORD26 /// SNORD27 /// SNORD28 /// SNORD29 /// SNORD31 / Fold change vs veh, SNHG1 /// SNORD22 /// SNORD25 /// SNORD26 /// SNORD27 /// SNORD28 /// SNORD29 /// SNORD31 / Fold change (Aza/veh), C12orf56 (ProbeSet 11735607_a_at) / Fold change (ACY-1035/veh), C12orf56 (ProbeSet 11735607_a_at) / Fold change (Aza/veh), FGFR1OP (ProbeSet 11751329_s_at) / Fold change (ACY-1035/veh), FGFR1OP (ProbeSet 11751329_s_at) / Fold change (Aza/veh), VPS36 (ProbeSet 11739960_a_at) / Fold change (ACY-1035/veh), VPS36 (ProbeSet 11739960_a_at) / RFU SYPL1 (11715823_x_at) / Fold change /veh SYPL1 (11715823_x_at) / RFU IGFBP7 (11715501_s_at) / Fold change /veh IGFBP7 (11715501_s_at) / RFU REEP3 (11722064_at) / Fold change /veh REEP3 (11722064_at) / RFU IGLL1 (11728026_x_at) / Fold change /veh IGLL1 (11728026_x_at): dose or concentration left out as unconfirmed. Conditions: ProbeSet 11743567_s_at; LIST B.

Structures are written as SMILES.

Take `Nc1ncn([C@@H]2O[C@H](CO)[C@@H](O)[C@H]2O)c(=O)n1` [azacitidine]: the “RFU, ACBD3” value was determined as 255.44 RFU.
